Measured values: ChEMBL document CHEMBL5620432 (Eur J Med Chem, 2023)
Active and inactive are the calls of the source. The calls are words filed in the database; no cut-off is given here.

Key:
Nociceptin receptor [1] = molecular target: T1, Nociceptin receptor (Homo sapiens, UniProt P41146); assay: Agonist activity at human NOP receptor expressed in CHO-K1 cells co-expressed with Galphai by cAMP assay relative to control; format: functional, cell-based
Mu-type opioid receptor [2] = molecular target: T2, Mu-type opioid receptor (Homo sapiens, UniProt P35372); assay: Agonist activity at human MOR expressed in CHO-K1 cells co-expressed with Galphai by cAMP assay relative to control; format: functional, cell-based; conditions: filed as agonist
Nociceptin receptor [3] = molecular target: T1, Nociceptin receptor; assay: Agonist activity at human NOP receptor expressed in CHO-K1 cells co-expressed with Galphai by cAMP assay; format: functional, cell-based
Mu-type opioid receptor [4] = molecular target: T2, Mu-type opioid receptor; assay: Agonist activity at human MOR expressed in CHO-K1 cells co-expressed with Galphai by cAMP assay; format: functional, cell-based
Mus musculus [5] = assay: Antinociceptive activity in wild type C57BL/6 mouse assessed as maximum possible effect at 12 mg/kg measured upto 60 mins by tail-flick test; format: functional; conditions: 1 h
Mu-type opioid receptor [6] = molecular target: T2, Mu-type opioid receptor; assay: Displacement of [3H]-Diprenorphine from human MOR expressed in CHO-K1 cell membrane assessed as inhibition constant; format: cell membranes
Mus musculus [7] = assay: Induction of motivational effect in C57BL/6 mouse assessed as increase in reward behaviour at 284 microg/kg, sc administered for 4 days and measured on day 6 by CPP analysis; format: functional, organism-based; conditions: dose 284.0 µg/kg, time 6.0 day
Mus musculus [8] = assay: Antinociceptive activity in thermal stimulated MOR-knockout C57BL/6 mouse assessed as delay in flick tail at 252.8 microg/kg, sc measured upto 120 mins by tail flick test; format: functional, organism-based; conditions: dose 252.8 µg/kg
Mus musculus [9] = assay: Antinociceptive activity in thermal stimulated sc dosed hMOR/mMOR knockout C57BL/6 mouse measured upto 120 mins by tail flick test; format: functional; conditions: C57BL/6, 2 h
[10] = Drug concentration in mouse plasma at 2 mg/kg,sc measured after 5 mins by ICP-MS analysis; format: ADME, organism-based
[11] = Drug concentration in mouse intestine at 2 mg/kg,sc measured after 5 mins by ICP-MS analysis; format: ADME, organism-based; conditions: read-out: Ct
[12] = Drug concentration in mouse brain at 2 mg/kg,sc measured after 60 mins by ICP-MS analysis; format: ADME, organism-based; conditions: read-out: Ct
[13] = Drug concentration in mouse intestine at 2 mg/kg,sc measured after 60 mins by ICP-MS analysis; format: ADME, organism-based; conditions: read-out: Ct
Mus musculus [14] = assay: Antinociceptive activity in thermal stimulated hMOR/mMOR knockout C57BL/6 mouse at 402 microg/kg,sc measured after 30 to 60 mins by tail flick test; format: functional, organism-based; conditions: dose 402.0 µg/kg, time 30-60 min
Nociceptin receptor [15] = molecular target: T1, Nociceptin receptor; assay: Displacement of [3H]-Nociceptin from human NOP receptor expressed in CHO-K1 cell membrane assessed as inhibition constant; format: cell membranes
Mus musculus [16] = assay: Antinociceptive activity in thermal stimulated wild type C57BL/6 mouse at 284 to 568 microg/kg, sc measured at 30 to 60 mins by tail flick test; format: functional, organism-based; conditions: dose 284-568 µg/kg, time 30-60 min
Mus musculus [17] = assay: Antinociceptive activity in thermal stimulated hMOR/mMOR knockout C57BL/6 mouse assessed as drug tolerance at 402 microg/kg, sc administered twice daily for 5 days and measured on day 1, 3, and 5 after 30 mins post drug treatment by tail flick test; format: functional, organism-based; conditions: dose 402.0 µg/kg, time 5.0 day
Mus musculus [18] = assay: Induction of motivational effect in C57BL/6 mouse assessed as increase in number of jumps at 284 microg/kg, sc administered daily twice for 5 days by CPP analysis; format: functional, organism-based; conditions: dose 284.0 µg/kg, time 5.0 day
Mu-type opioid receptor [19] = molecular target: T2, Mu-type opioid receptor; assay: Agonist activity at human MOR expressed in CHO-K1 cells assessed as decrease in intracellular cAMP level at 1 uM in presence of naltrexone; format: functional, cell-based; conditions: filed as agonist
Nociceptin receptor [20] = molecular target: T1, Nociceptin receptor; assay: Agonist activity at human NOP receptor expressed in CHO-K1 cells assessed as beta arrestin-2 recruitment; format: functional, cell-based
Mus musculus [21] = assay: Antinociceptive activity in thermal stimulated sc dosed wild type C57BL/6 mouse measured upto 120 mins by tail flick test; format: functional; conditions: C57BL/6, 2 h
[22] = Drug concentration in mouse brain at 2 mg/kg,sc measured after 5 mins by ICP-MS analysis; format: ADME, organism-based; conditions: read-out: Ct
Mu-type opioid receptor [23] = molecular target: T2, Mu-type opioid receptor; assay: Agonist activity at human MOR expressed in CHO-K1 cells assessed as beta arrestin-2 recruitment; format: functional, cell-based
Mus musculus [24] = assay: Antinociceptive activity in thermal stimulated wild type C57BL/6 mouse assessed as drug tolerance at 568 microg/kg, sc administered twice daily for 5 days and measured on day 1, 3, and 5 after 30 mins post drug treatment by tail flick test; format: functional, organism-based; conditions: dose 568.0 µg/kg, time 5.0 day
[25] = Drug concentration in mouse plasma at 2 mg/kg,sc measured after 60 mins by ICP-MS analysis; format: ADME, organism-based
Nociceptin receptor [26] = molecular target: T1, Nociceptin receptor; assay: Agonist activity at human NOP receptor expressed in CHO-K1 cells assessed as decrease in intracellular cAMP level at 1 uM in presence of BAN ORL 24; format: functional, cell-based; conditions: filed as agonist
Mus musculus [27] = assay: Induction of motivational effect in C57BL/6 mouse assessed as increase in number of jumps at 2.5 microg/kg, sc administered daily twice for 5 days by CPP analysis; format: functional, organism-based; conditions: dose 2.5 µg/kg, time 5.0 day

T1 sequence (P41146 whole entry): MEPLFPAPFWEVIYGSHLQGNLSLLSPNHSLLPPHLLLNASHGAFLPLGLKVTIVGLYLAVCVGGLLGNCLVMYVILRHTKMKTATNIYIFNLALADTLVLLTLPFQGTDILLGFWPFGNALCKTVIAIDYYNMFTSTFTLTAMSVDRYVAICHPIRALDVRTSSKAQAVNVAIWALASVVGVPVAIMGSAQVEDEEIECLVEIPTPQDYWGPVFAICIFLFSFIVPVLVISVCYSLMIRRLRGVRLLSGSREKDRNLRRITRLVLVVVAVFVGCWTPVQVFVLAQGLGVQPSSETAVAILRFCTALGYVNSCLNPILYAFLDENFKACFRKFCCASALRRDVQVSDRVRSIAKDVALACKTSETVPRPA
T2 sequence (P35372 whole entry): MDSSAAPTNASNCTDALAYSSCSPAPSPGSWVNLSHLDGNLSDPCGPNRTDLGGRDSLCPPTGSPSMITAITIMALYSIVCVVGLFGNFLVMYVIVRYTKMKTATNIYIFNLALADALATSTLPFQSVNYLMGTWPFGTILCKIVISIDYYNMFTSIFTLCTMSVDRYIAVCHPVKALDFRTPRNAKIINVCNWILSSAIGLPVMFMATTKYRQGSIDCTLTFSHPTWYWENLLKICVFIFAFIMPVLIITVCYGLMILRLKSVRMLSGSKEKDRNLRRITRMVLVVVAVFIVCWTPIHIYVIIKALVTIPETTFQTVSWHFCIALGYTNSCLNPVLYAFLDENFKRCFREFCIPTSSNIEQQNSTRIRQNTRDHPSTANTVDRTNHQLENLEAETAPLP

With `CN1CCc2ccccc2C1CNC(=O)c1ccc(Cl)c(Cl)c1` (stereo not given) the Emax (Nociceptin receptor [1]; filed as agonist) was 87%, the Emax (Mu-type opioid receptor [2]) was 93.6% and the EC50 (Nociceptin receptor [3]) was 170 pM. The EC50 (Mu-type opioid receptor [4]) was 23.4 pM.

Work on `CN(C)C(CNC(=O)NCCc1cccc(C(F)(F)F)c1)c1cccc(F)c1` (stereo not given) yielded an Emax (Nociceptin receptor [1]) of less than 20%, an Emax (Mu-type opioid receptor [2]) of 74.1% and an EC50 (Mu-type opioid receptor [4]) of 18.6 pM.

Molecule `CN(C)C(CNC(=O)NCc1ccc(F)cc1)c1cccc(F)c1` (stereo not given) has an Emax (Nociceptin receptor [1]; filed as agonist) of 93.2%, an Emax (Mu-type opioid receptor [2]) of 96.1% and an MPE (Mus musculus [5]) of 100%.

Work on `CN(C)C(CNC(=O)NCCc1ccc(Cl)cc1)c1cccc(F)c1` (stereo not given) yielded an Emax (Nociceptin receptor [1]; filed as agonist) of 53.9%, an Emax (Mu-type opioid receptor [2]) of 72.4% and an EC50 (Nociceptin receptor [3]) of 610 pM.

In the case of `CN(C)C(CNC(=O)NCc1cccc(Cl)c1)c1cccc(F)c1` (stereo not given), the Ki (Mu-type opioid receptor [6]) is reported as 400 pM, the Activity (Mus musculus [7]) is reported as “inactive” and the Emax (Nociceptin receptor [1]; filed as agonist) is reported as 91.6%. The Emax (Mu-type opioid receptor [2]) was 92.5%, the EC50 (Nociceptin receptor [3]) was 0.126 pM and the Activity (Mus musculus [8]) was “inactive”. It also gave an ED50 (Mus musculus [9]) of 0.402 mg/kg, a concentration at 5 min [10] of 673 ng/mL and a concentration at 5 min [11] of 1290 ng/g. The concentration at 1 h [12] was 237 ng/g, the concentration at 1 h [13] was 454 ng/g and the Activity (Mus musculus [14]) was “Active”. For the same molecule, the MPE (Mus musculus [5]) was 100%, the Ki (Nociceptin receptor [15]) was 200 pM and the Activity (Mus musculus [16]) was “Active”. For the same molecule, the Activity (Mus musculus [17]) was “inactive”, the Activity (Mus musculus [18]) was “inactive” and the Activity (Mu-type opioid receptor [19]) was “Active”. For the same molecule, the EC50 (Nociceptin receptor [20]) was 200 pM, the ED50 (Mus musculus [21]) was 0.284 mg/kg and the concentration at 5 min [22] was 838 ng/g. The EC50 (Mu-type opioid receptor [4]) was 0.102 pM, the EC50 (Mu-type opioid receptor [23]) was 3990 pM and the Activity (Mus musculus [24]) was “inactive”. The concentration at 1 h [25] was 119 ng/mL and the Activity (Nociceptin receptor [26]) was “Active”.

With `CN(C)C(CNC(=O)NCCc1cccc(F)c1)c1cccc(F)c1` (stereo not given) the Emax (Nociceptin receptor [1]; filed as agonist) was 92.6%, the Emax (Mu-type opioid receptor [2]) was 90.8% and the MPE (Mus musculus [5]) was 0%. It also gave an EC50 (Mu-type opioid receptor [4]) of 0.374 pM.

With `CN1CC[C@]23c4c5ccc(O)c4O[C@H]2[C@@H](O)C=C[C@H]3[C@H]1C5` the Activity (Mus musculus [27]) was “Active”.

With `CN(C)C(CNC(=O)NCCc1ccccc1)c1cccc(F)c1` (stereo not given) the Emax (Nociceptin receptor [1]; filed as agonist) was 72%, the Emax (Mu-type opioid receptor [2]) was 86.6% and the EC50 (Nociceptin receptor [3]) was 2960 pM. For the same molecule, the EC50 (Mu-type opioid receptor [4]) was 21000 pM.

In the case of `CN(C)C(CNC(=O)NCc1cccc(F)c1)c1cccc(F)c1` (stereo not given), the Emax (Nociceptin receptor [1]; filed as agonist) is reported as 89.8% and the Emax (Mu-type opioid receptor [2]) is reported as 91.2%.

`CN(C)C(CNC(=O)NCc1cccc(C(F)(F)F)c1)c1cccc(F)c1` (stereo not given) showed an Emax (Nociceptin receptor [1]) of less than 20%, an Emax (Mu-type opioid receptor [2]) of 85.2% and an EC50 (Mu-type opioid receptor [4]) of 0.66 pM.

With `Cc1ccc(CCNC(=O)NCC(c2cccc(F)c2)N(C)C)cc1` (stereo not given) the Emax (Nociceptin receptor [1]; filed as agonist) was 76.9%, the Emax (Mu-type opioid receptor [2]) was 80.7% and the EC50 (Nociceptin receptor [3]) was 209000 pM. It also gave an EC50 (Mu-type opioid receptor [4]) of 15100 pM.

`CN(C)C(CNC(=O)NCCc1ccc(F)cc1)c1cccc(F)c1` (stereo not given) gave an Emax (Nociceptin receptor [1]; filed as agonist) of 58.4%, an Emax (Mu-type opioid receptor [2]) of 81.1% and an EC50 (Nociceptin receptor [3]) of 0.126 pM.
